Measurements from US20070224287A1, “Methods of Modulating Inflammatory Reactions by Modulating Xanthine Oxidoreductase Activity” (priority 2003, published 2007).

How the values were obtained:
O-form XOR = biological target: T1, O-form XOR (Rattus norvegicus, UniProt P22985); assay: DTT reduction of O-form XOR in soluble lung protein extracts; type: biochemical; conditions: 5 nM DTT at 37° C. for one hour, re-chromatographed on sephadex G25 (FIG. 1e)
T1 construct: Total XOR activity in lung and liver tissue was determined using whole tissue protein extracts; from tissue; host or cells: lung (and liver) of Sprague-Dawley rats
Description: FIGS. 1A-E. Lung XOR induction following cytokine insufflation. Total lung and liver XOR activity was quantitated in the presence of NAD^+ in soluble desalted protein extracts from rats that were insufflated 24h before with saline, IL-1, IFN-γ or IL-1 and IFN-γ. […] IL-1 and IFN-γ insufflated rats had increased (**, p<0.02) lung (A), but not (p>0.05) liver (B), XOR activity compared to rats insufflated with saline, IL-1 (*, p<0.05), or IFN-γp>0.05). (C) Western immunoblot analysis of lung XOR from cytokine insufflated rats. Antibody to rat β-actin was used to control for gel loading. Gels were scanned with a Perkin-Elmer phosphoimager for semi-quantitation. Data are shown for two rats in each group. […] (D) The percentage of O-form XOR was quantitated in soluble protein extracts of cytokine insufflated rat lungs. […] Rats insufflated with IL-1 and IFN-γ had increased (*, p<0.05) lung O-form XOR activity compared to rats insufflated with saline, IL-1 or IFN-γ. […]
We quantitated the levels of O-form XOR in untreated or cytokine insufflated rat lungs. […] Soluble lung protein extracts from insufflated rats were exposed to 5 nM DTT at 37° C. for one hour and were re-chromatographed on sephadex G25 after which D-form and O-form content was re-measured. […]

caspase-3 = assay: Activated caspase-3 detection in lung sections; type: in vivo, rat; conditions: prior feeding with diet, IL-1 and IFN-γ insufflation 24 hours before (FIG. 4h)
Description: Activated caspase-3 detection. Detection of the cleaved, mature, activated caspase-3 was performed on paraffin-embedded sections using the Cell Signaling Technology, Inc (Beverly, Mass.) protocol. First, paraffin-embedded slides were deparaffinized and rehydrated. Incubation with 1% H2O2 for 10 min blocked endogenous peroxidase activity. For antigen unmasking, the tissue sections were microwaved in 10 mM sodium citrate buffer (pH 6.0) for 10 min. Next, the sections were blocked in 5% goat serum for 1 hr at room temperature. Slides were then incubated at 4° C. overnight with caspase-3 antibody specific for the cleaved, mature, form of caspase-3 diluted 1:200 in phosphate buffered saline (Asp-175; Cell Signaling Technology, Inc). This was followed by a 30 min incubation with a 1:200 dilution of goat anti-rabbit antibody (PK-6101; Vector Laboratories, Burlingame, Calif.). A subsequent 30 min incubation with VectaStain Elite ABC reagent (PK-6101; Vector Laboratories) ensued. This reaction was followed by the addition of the DAB substrate kit for peroxidase (SK-4100; Vector Labs). The slides were finally counterstained with hematoxylin (H-3401; Vector Labs), dehydrated and mounted. Caspase-3 positive cells were quantitated by counting the percent positive alveolar cells per field under 100× magnification.

sarcoidosis = conditions: cited from earlier work
[1] = system: colonic leukocyte-chemokine expression and leukocyte accumulation; conditions: mice; cited from earlier work
[2] = system: endothelial injury in the lungs (and gut); conditions: heavy smokers and rats subjected to heavy smoking conditions; cited from earlier work
[3] = system: leukocyte-chemokine expression and leukocyte accumulation; conditions: endotoxemic model of liver injury; cited from earlier work
vascular injury = conditions: mice, hemorrhagic shock or LPS injection, prior inhibition of XOR; cited from earlier work
[4] = system: vascular endothelial function; conditions: Type 1 and Type 2 diabetes in humans; cited from earlier work
[5] = system: PMN accumulation in the eye; conditions: uveitis, even after the onset of disease; cited from earlier work
MNP XOR = biological target: T2, MNP XOR (Rattus norvegicus, UniProt P22985); assay: Cell transfer experiment: BALF cells treated in vitro and insufflated into control rats; type: in vivo; conditions: BALF cells exposed 15 min to 150 μM allopurinol in vitro, 2×10^6 cells insufflated into control rats, BALF 24 hours later, p<0.05 vs control cells (FIG. 5c)
T2 construct: endogenous in cells; host or cells: BALF cells / adherent mononuclear phagocytes from IL-1 and IFN-gamma insufflated Sprague-Dawley rats
Description: A lung inflammatory response was induced in rats with IL-1 and IFN-γ insufflation. After 8 hours, cells from BALF were recovered from each rat in PBS, pooled, and quantitated. Cells were then divided into two equivalent fractions and exposed to 1 mM KOH or 1 mM KOH with 150 μM allopurinol in vitro. The neutral pH of the PBS and cell mixture was unchanged by adding 1 mM KOH. After 15 min, the cells were washed and resuspended in PBS. Subsequently, 2×10^6 of control or allopurinol treated cells were insufflated into control rats. 24 hours after cell insufflation, BALF cells were recovered from these rats, Wright's stained and quantitated. […] Data are the mean and standard error of 6 rats in each group.
To determine whether XOR induction in MNP could contribute to lung inflammation, we performed a cell transfer experiment. We induced a pulmonary inflammatory response in rats with IL-1 and IFN-γ insufflation, obtained these cells by bronchoalveolar lavage 8 hours later, and then treated these cells with either allopurinol or the vehicle for allopurinol in vitro. After a 15 min exposure to allopurinol or the vehicle, the cells were washed, resuspended in PBS, and then insufflated into control rats. Subsequently, cells were harvested from the BALF of these control rats, stained, and quantitated.

Id-2 = assay: Western immunoblot of Id-2 from BALF cells; type: in vivo, rat; conditions: 24 hours following cytokine insufflation, allopurinol vs control fed rats
Description: Western immunoblot analysis of the differential inhibitor, Id-2, from BALF cells obtained 24 hours following cytokine insufflation in allopurinol (A) or control (C) fed rats.

pancreatic fibrosis = conditions: rats treated with diethyldithiocarbamate; cited from earlier work
alveolar cells = assay: TUNEL staining and morphometric analysis; type: in vivo, rat; conditions: prior feeding with diet, IL-1 and IFN-γ insufflation 24 h before (FIG. 4f,g)
Description: TUNEL staining and morphometric analysis. The TUNEL assay was used to detect apoptotic cells in fixed lung sections. After fixation with 4% buffered formalin, lung tissue sections were embedded in paraffin, sectioned at […], and mounted on glass slides. Slides were de-paraffinized, rehydrated for 10 min in PBS, and treated with 0.002% proteinase K (Sigma) in distilled water for 5 to 15 min at room temperature. Terminal deoxynucleotidyl transferase (TdT) was used for labeling of DNA nicks using the TACS kit (Trevigen, Inc., Gaithersburg, Md.). Counterstaining with DAPI was done to stain nuclear DNA and with Rhodamine coupled wheat germ agglutinin (WGA, Molecular Probes, Eugene, Oreg.) to stain the structural architecture. TUNEL positive cell staining appeared as green fluorescence in the nuclei of clearly defined alveolar cells. Background nuclear staining appeared as blue while the tissue architecture was red.

[6] = system: pancreatitis and vascular injury; conditions: L-arginine induced pancreatic inflammation in rats; cited from earlier work
[7] = system: acute gastric mucosal lesions; conditions: rats; cited from earlier work
superoxide generation = conditions: streptozotocin induced diabetes in mice; cited from earlier work
XOR [8] = biological target: T3, XOR (Homo sapiens, UniProt P47989); conditions: COPD; cited from earlier work
T3 construct: host or cells: bronchoalveolar lavage fluid of COPD patients

NADPH oxidase = conditions: even at relatively high doses; cited from earlier work
[9] = system: patients with chronic heart failure (CHF), cardiomyopathy, or undergoing heart surgery; conditions: cited from earlier work
[10] = system: IL-1 and IFN-γ insufflated rats; assay: Differential and total inflammatory cell counts in BALF after cytokine insufflation; type: in vivo, rat; conditions: for accumulation of inflammatory cells (BALF cell numbers): diet before IL-1 and IFN-γ insufflation, 24 hours later, allopurinol 50 mg/Kg for seven days (FIG. 4c); for macrophages in BALF (differential analysis) / neutrophils in BALF (differential analysis): 24 hours following insufflation
Excerpt: (§1) Intratracheal cytokine insufflation.

[11] = system: IL-1 and IFN-γ insufflated rats; assay: Lung histology (H&E) after cytokine insufflation; conditions: diet before IL-1 and IFN-γ insufflation, 24 hours later (FIG. 4d)
XOR [12] = conditions: cited from earlier work
XOR [13] = biological target: T4, XOR (Rattus norvegicus, UniProt P22985); assay: Xanthine oxidoreductase assay, lung tissue extracts of cytokine insufflated rats; type: in vivo; conditions: for induction of total lung XOR activity: 24 hours following intratracheal cytokine insufflation (50 ng per rat) compared to saline alone (FIG. 1a); for lung O-form XOR content: lungs 24 h after insufflation, untreated 23%, saline 42% (FIG. 1d)
T4 construct: Total XOR activity in lung and liver tissue was determined using whole tissue protein extracts; from tissue; host or cells: lung (and liver) of Sprague-Dawley rats
Description: as §1
(§2) Xanthine oxidoreductase assay. Total XOR activity in lung and liver tissue was determined using whole tissue protein extracts. Briefly, tissues that had been perfused blood free were placed into liquid N2 and stored at −80° C. prior to generating enzyme extracts. Enzyme extracts were prepared by placing frozen specimens in extract buffer (100 mM K-Phosphate, pH 7.8, 1 mM EDTA, 1 mM PMSF). Tissues were thawed in extract buffer on ice and minced. Minced tissues were broken in a rotating dounce using exactly three strokes of the pestle. Tissue homogenates were then centrifuged at 15,000×g at 4° C. for 30 min. Clarified extracts were desalted on 2 cm×20 cm Sephadex G25 columns to remove low molecular weight substances that potentially interfere with enzyme activity (48), and 3 ml of the flow through front were collected. Allopurinol inhibitable XOR activity was determined spectroscopically by measuring uric acid formation from xanthine at 290 nm. The stability of uric acid added to the flow through fraction was determined in the presence and absence of the uricase inhibitor, oxonic acid (OA). […] Evaluation of D-form XOR and O-form XOR was determined by measuring enzymatic activity in the presence and absence of NAD+(49).

XOR [14] = biological target: T4, XOR; assay: XOR activity in BALF cells / adherent MNP of cytokine insufflated rats; conditions: in vivo
Description: as §1
as §2, with “Clarified extracts were desalted on 2 cm×20 cm Sephadex G25 columns to remove low molecular weight substances that potentially interfere with enzyme activity (48), and 3 ml of the flow through front were collected.” left out
Neutrophils and MNP were recovered from the BALF 24 hours following IL-1 and IFN-γ insufflation and purified on Percoll gradients. […] Although XOR was induced over a 24 hour period in the infiltrating MNP recovered from the lungs of IL-1 and IFN-γ insufflated rats, neither XOR activity or antigen was detected in circulating rat monocytes (not shown). […]

T4 sequence (P22985 whole entry): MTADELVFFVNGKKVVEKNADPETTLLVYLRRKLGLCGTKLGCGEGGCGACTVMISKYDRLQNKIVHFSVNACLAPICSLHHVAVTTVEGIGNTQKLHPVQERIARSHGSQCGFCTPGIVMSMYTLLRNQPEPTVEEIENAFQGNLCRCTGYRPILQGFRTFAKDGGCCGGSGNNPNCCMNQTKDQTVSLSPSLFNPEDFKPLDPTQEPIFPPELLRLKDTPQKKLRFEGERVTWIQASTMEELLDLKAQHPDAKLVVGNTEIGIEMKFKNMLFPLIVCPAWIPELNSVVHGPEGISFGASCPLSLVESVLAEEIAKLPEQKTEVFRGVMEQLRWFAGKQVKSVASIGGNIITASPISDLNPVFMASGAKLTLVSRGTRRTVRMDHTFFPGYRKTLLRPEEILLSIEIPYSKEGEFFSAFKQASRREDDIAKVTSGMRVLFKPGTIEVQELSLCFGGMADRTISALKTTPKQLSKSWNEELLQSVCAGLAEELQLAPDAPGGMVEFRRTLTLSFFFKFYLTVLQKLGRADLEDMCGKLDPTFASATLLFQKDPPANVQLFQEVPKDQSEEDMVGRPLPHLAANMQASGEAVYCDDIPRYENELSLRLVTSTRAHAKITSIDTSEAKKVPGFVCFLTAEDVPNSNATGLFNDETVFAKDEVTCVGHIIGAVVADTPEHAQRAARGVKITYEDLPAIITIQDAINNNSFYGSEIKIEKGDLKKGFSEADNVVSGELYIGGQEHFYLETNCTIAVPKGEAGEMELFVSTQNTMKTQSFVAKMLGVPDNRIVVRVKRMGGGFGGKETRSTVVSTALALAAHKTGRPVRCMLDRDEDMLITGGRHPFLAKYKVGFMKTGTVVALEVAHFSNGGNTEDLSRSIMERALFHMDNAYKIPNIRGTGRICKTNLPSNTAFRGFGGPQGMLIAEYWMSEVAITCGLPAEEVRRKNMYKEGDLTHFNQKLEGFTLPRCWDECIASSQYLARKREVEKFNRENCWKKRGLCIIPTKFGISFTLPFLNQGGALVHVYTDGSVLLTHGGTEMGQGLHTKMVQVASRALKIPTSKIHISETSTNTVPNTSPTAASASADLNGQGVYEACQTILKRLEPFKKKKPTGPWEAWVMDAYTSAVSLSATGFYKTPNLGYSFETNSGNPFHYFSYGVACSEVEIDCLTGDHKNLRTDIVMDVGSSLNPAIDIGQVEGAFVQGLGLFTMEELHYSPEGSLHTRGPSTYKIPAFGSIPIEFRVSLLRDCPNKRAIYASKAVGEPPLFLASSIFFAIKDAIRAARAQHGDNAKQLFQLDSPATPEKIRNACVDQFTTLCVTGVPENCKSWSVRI
T2 sequence (P22985 whole entry): as above
T1 sequence (P22985 whole entry): as above
T3 sequence (P47989 whole entry): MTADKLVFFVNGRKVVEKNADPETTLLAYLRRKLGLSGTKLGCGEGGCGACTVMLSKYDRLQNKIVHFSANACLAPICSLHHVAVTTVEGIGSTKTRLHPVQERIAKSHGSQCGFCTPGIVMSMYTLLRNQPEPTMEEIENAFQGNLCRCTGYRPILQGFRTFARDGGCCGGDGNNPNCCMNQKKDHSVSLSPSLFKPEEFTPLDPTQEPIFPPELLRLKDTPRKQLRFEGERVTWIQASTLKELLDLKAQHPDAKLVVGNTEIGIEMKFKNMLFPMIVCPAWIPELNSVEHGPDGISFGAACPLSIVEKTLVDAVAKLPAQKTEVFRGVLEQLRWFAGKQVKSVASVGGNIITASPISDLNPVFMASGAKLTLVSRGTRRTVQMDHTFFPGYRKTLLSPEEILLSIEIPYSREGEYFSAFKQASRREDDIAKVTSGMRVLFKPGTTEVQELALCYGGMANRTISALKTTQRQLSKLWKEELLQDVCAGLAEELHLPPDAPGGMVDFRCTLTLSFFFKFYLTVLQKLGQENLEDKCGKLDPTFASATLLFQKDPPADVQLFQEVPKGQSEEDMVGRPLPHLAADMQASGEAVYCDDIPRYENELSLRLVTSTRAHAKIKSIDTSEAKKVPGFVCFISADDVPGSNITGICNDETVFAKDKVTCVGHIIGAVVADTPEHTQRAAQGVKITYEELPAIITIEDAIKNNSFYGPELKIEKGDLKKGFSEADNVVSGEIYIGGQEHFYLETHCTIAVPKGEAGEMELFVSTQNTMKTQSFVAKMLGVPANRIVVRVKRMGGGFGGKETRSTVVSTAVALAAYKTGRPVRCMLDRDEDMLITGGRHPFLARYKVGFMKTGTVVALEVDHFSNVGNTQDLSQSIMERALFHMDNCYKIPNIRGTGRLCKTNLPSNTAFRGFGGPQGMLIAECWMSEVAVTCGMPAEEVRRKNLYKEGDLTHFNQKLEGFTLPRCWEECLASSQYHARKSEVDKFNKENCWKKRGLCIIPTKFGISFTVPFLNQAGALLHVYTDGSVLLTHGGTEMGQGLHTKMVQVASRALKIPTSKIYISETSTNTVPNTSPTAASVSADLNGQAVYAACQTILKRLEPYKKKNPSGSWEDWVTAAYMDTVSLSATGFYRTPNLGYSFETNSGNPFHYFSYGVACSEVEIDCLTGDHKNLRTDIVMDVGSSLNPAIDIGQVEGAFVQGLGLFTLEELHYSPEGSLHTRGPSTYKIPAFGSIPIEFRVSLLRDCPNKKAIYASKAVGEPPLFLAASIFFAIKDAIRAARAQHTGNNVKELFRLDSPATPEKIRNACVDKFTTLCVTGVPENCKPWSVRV

O[C@H](CS)[C@H](O)CS (racemic) [DTT, dithiothreitol]
O-form XOR after DTT reduction (O-form XOR): approximately 23 % of the total XOR

Oc1ncnc2[nH]ncc12 [allopurinol]
activation of caspase-3 in cytokine insufflated rat lungs (caspase-3): blocked | pulmonary sarcoidosis attributed to BCG vaccination (sarcoidosis; human): completely regressed | sarcoidosis outcome (sarcoidosis; patients with sarcoidosis): induce remission | I/R induced colonic leukocyte-chemokine expression and leukocyte accumulation [1]: markedly reduced | endothelial injury in the lungs (and gut) [2]: reduce | leukocyte-chemokine expression and leukocyte accumulation [3]: blocked | evidence of vascular injury (vascular injury): dramatically attenuated | vascular endothelial function [4]: protective | capacity to reduce PMN accumulation in the eye [5]: as effective as steroid treatment | recovery of neutrophils in the BALF after insufflation of treated BALF cells (MNP XOR): attenuated | Id-2 from BALF cells (Western immunoblot) (Id-2): XOR dependent regulations of MNP Id-2 levels | pancreatic fibrosis (pancreatic fibrosis): blocked | development of alveolar apoptosis (TUNEL positive alveolar nuclei) (alveolar cells): attenuated | evidence of pancreatitis and vascular injury [6]: blocked | markers of leukocyte infiltration in the gut [7]: decreased | progression of experimentally induced acute gastric mucosal lesions [7]: blocked | superoxide generation (superoxide generation): normalized | XOR and evidence of XOR derived oxidative stress (XOR [8]): reduced | scavenging of ROS generated from the NADPH oxidase (NADPH oxidase): fails to scavenge | effect in patients with chronic heart failure, cardiomyopathy, or undergoing heart surgery [9]: cardio-protective effect | accumulation of inflammatory cells (BALF cell numbers) [10]: reduced | histologic evidence of airway and perivascular inflammation [11]: attenuated

[W] [tungsten]
activation of caspase-3 in cytokine insufflated rat lungs (caspase-3): blocked | development of alveolar apoptosis (TUNEL positive alveolar nuclei) (alveolar cells): attenuated | mononuclear cell infiltration and rejection signs (XOR [12]; day 9 post-transplantation): significantly ameliorated | NADPH-oxidase activity (XOR [12]; renal allografts): without any effect | XOR activity and ROS production (XOR [12]; renal allografts): pronounced reduction | XOR activity in the lungs (XOR [13]; tungsten diet before IL-1 and IFN-γ insufflation, 24 hours later, vs control diet (FIG. 4a)): decreased | XOR activity in the BALF cells (MNP XOR activity) (XOR [14]): decreased | accumulation of inflammatory cells (BALF cell numbers) [10]: reduced | histologic evidence of airway and perivascular inflammation [11]: attenuated

B1: interferon-y (protein, UniProt P01581 23-156, looked up)
Interferon gamma: QGTLIESLESLKNYFNSSSMDAMEGKSLLLDIWRNWQKDGNTKILESQIISFYLRLFEVLKDNQAISNNISVIESHLITNFFSNSKAKKDAFMSIAKFEVNNPQIQHKAVNELIRVIHQLSPESSLRKRKRSRC
notes: recombinant rat cytokine insufflated intratracheally to induce lung inflammation
induction of total lung XOR activity (XOR [13]): negligible response | lung O-form XOR content (XOR [13]): 52 % of the total XOR activity | macrophages in BALF (differential analysis) [10]: ~20% | neutrophils in BALF (differential analysis) [10]: approximately 80%

B2: Recombinant rat interleukin-1-α (protein, UniProt P16598 115-270, looked up)
Interleukin-1 alpha: SAPHSFQNNLRYKLIRIVKQEFIMNDSLNQNIYVDMDRIHLKAASLNDLQLEVKFDMYAYSSGGDDSKYPVTLKVSNTQLFVSAQGEDKPVLLKEIPETPKLITGSETDLIFFWEKINSKNYFTSAAFPELLIATKEQSQVHLARGLPSMIDFQIS
notes: as for B1
induction of total lung XOR activity (XOR [13]): approximate doubling | lung O-form XOR content (XOR [13]): 57 % of the total XOR activity | macrophages in BALF (differential analysis) [10]: ~20% | neutrophils in BALF (differential analysis) [10]: approximately 80%
